Data published in paper PMC7419507, “In vitro Cas9-assisted editing of modular polyketide synthase genes to produce desired natural product derivatives” (Nature Communications, 2020).
Where “and” joins values, the source holds several entries; their conditions need not be identical. Identical values can stand only once.

Assays:
Assay type in all cases: cell-based
T lymphoma Jurkat cells = experiment: Cytotoxicity assay (CellTiter-Glo, 72 h), Jurkat; details: raw data (replicates)
Protocol: (§1) Jurkat cells were cultured in RPMI1640 medium supplemented with 10% foetal bovine serum, penicillin (50 U/ml), streptomycin (50 μg/ml), and Glutamax. SKOV-3 cells were cultured in DMEM medium supplemented with 10% fetal bovine serum, penicillin (50 U/ml), and streptomycin (50 μg/ml). MESO-1 cells were cultured in RPMI1640 medium supplemented with 10% fetal bovine serum, penicillin (50 U/ml), and streptomycin (50 μg/ml). All cell lines were seeded in a 384-well plate at a density of 1000 cells/well in 20 μl of media and incubated at 37 °C in a humidified incubator with 5% CO2. After 4 h, 2-fold dilution samples resolved in DMSO were added to the cell culture at the concentration of 0.5% (0.1 μl) and incubated for 72 h. Cell viabilities were measured using a CellTiter-Glo luminescent cell viability assay and EnVision multilabel plate reader.

[1] = test system: Jurkat, SKOV-3 and MESO-1 cells; experiment: Cytotoxicity assay, statements for all tested cell lines together; details: against the tested cell lines (Jurkat, SKOV-3, MESO-1)
Protocol: as §1

FKBP12 and mTOR = molecular target: T1, FKBP12 and mTOR (Homo sapiens, UniProt P42345+P62942); experiment: Fluoppi analysis: induction of FKBP12-mTOR complex formation in transfected HeLa cells; details: for Foci intensity: raw data, one replicate per line
T1 construct: host or cells: HeLa cells
T1 sequence (P42345 2025-2114 limits assumed): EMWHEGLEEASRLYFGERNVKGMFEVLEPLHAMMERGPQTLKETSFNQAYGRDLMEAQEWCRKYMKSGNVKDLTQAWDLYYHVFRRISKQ
T1 sequence (P62942 whole entry): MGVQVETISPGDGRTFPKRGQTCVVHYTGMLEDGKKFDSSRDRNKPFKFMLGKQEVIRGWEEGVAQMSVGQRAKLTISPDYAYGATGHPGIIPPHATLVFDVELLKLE
Protocol: Fluoppi harbours a tetrameric fluorescent protein hAG tag and an oligomeric assembly helper Ash tag to create detectable fluorescent foci in cells when there are interactions between two proteins fused to each tag[32].
HeLa cells were maintained in DMEM (Fujifilm Wako, Osaka, Japan) supplemented with 10% FBS (Thermo Fisher Scientific, MA, USA) and 1% of Penicillin-Streptomycin (Thermo Fisher Scientific) in a humidified incubator with 5% CO2 at 37 °C. Harvested cells were plated at 1 × 10^6 cells/well in 6-well plate and incubated for 6 h. Then each 1.25 µg of phAG-mTOR and pAsh-FKBP12 (Medical and Biological Laboratories Co., Ltd., Aichi, Japan) was co-transfected with Lipofectamine 2000 reagent (Thermo Fisher Scientific) overnight. Next day, transfected cells were harvested and seeded in 384-well optical-bottom microplate (PerkinElmer, MA, USA) at a density of 3000 cells/well. After the 24 h incubation at 37 °C, cells were treated with different concentrations of compounds for 1 h. Cells were then fixed with 4% paraformaldehyde and stained with 1 µg/ml of Hoechst33342 (Thermo Fisher Scientific). Cell images of 9 visual fields/well were acquired with ×20 objective lens in Opera Phenix High-Content Screening System (PerkinElmer) and analysed by Harmony4.9 software (PerkinElmer). Because protein-protein interactions are quantified by measuring the aggregation of fluorescent elements in foci, fluorescent intensity in foci was normalised by total fluorescent intensity in each cell. EC50 values were calculated using TIBCO Spotfire 10.3 software (PerkinElmer).

[2] = test system: human ovarian adenocarcinoma SKOV-3 cells; experiment: Cytotoxicity assay (CellTiter-Glo, 72 h), SKOV-3; details: raw replicate data
Protocol: as §1

[3] = test system: malignant pleural mesothelioma MESO-1 cells; experiment: Cytotoxicity assay (CellTiter-Glo, 72 h), MESO-1; details: raw replicate data
Protocol: as §1

COC1CC2CCC(C)C(O)(O2)C(=O)C(=O)N2CCCCC2C(=O)OC(C(C)CC2CCC(O)C(OC)C2)CC(O)CC(=O)C(C)CC(C)C=CC=CC=C1C (stereo not shown) [Compound 11]
Jurkat viability (%) (T lymphoma Jurkat cells; conc 9.53674e-5 uM): 99.6% and 105.7% and 104.8% | Jurkat viability (%) (T lymphoma Jurkat cells; conc 0.000190735 uM): 102.5% and 104.1% and 102.4% | Jurkat viability (%) (T lymphoma Jurkat cells; conc 0.00038147 uM): 103.5% and 109.4% and 98.8% | Jurkat viability (%) (T lymphoma Jurkat cells; conc 0.000762939 uM): 99.9% and 101.1% and 97.3% | Jurkat viability (%) (T lymphoma Jurkat cells; conc 0.00152588 uM): 100.9% and 100.4% and 103.9% | Jurkat viability (%) (T lymphoma Jurkat cells; conc 0.00305176 uM): 102.0% and 103.4% and 101.1% | Jurkat viability (%) (T lymphoma Jurkat cells; conc 0.00610352 uM): 100.0% and 104.2% and 103.2% | Jurkat viability (%) (T lymphoma Jurkat cells; conc 0.012207 uM): 106.8% and 106.3% and 106.1% | Jurkat viability (%) (T lymphoma Jurkat cells; conc 0.0244141 uM): 104.8% and 107.2% and 106.6% | Jurkat viability (%) (T lymphoma Jurkat cells; conc 0.0488281 uM): 97.2% and 96.3% and 106.5% | Jurkat viability (%) (T lymphoma Jurkat cells; conc 0.0976562 uM): 106.1% and 104.1% and 111.0% | Jurkat viability (%) (T lymphoma Jurkat cells; conc 0.195312 uM): 100.5% and 100.4% and 103.3% | Jurkat viability (%) (T lymphoma Jurkat cells; conc 0.390625 uM): 100.9% and 100.4% and 105.6% | Jurkat viability (%) (T lymphoma Jurkat cells; conc 0.78125 uM): 94.7% and 91.5% and 97.0% | Jurkat viability (%) (T lymphoma Jurkat cells; conc 1.5625 uM): 93.8% and 86.6% and 86.2% | Jurkat viability (%) (T lymphoma Jurkat cells; conc 3.125 uM): 76.9% and 80.2% and 77.8% | Jurkat viability (%) (T lymphoma Jurkat cells; conc 6.25 uM): 68.8% and 66.4% and 70.4% | Jurkat viability (%) (T lymphoma Jurkat cells; conc 12.5 uM): 58.6% and 56.1% and 57.5% | Jurkat viability (%) (T lymphoma Jurkat cells; conc 25 uM): 45.9% and 41.4% and 49.3% | Jurkat viability (%) (T lymphoma Jurkat cells; conc 50 uM): 12.3% and 11.6% and 15.7% | Concentration at which cytotoxic activities were shown [1]: over 10 µM | PPI-inducing (binding enhancing) activity between FKBP12 and mTOR compared with rapamycin (1), in words (FKBP12 and mTOR; Fluoppi): completely lost the ability to induce the formation of FKBP12-mTOR complex | Foci intensity (FKBP12 and mTOR; conc 9.53674e-5 uM): 0.02286 and 0.01106 and 0.01492 | Foci intensity (FKBP12 and mTOR; conc 0.000190735 uM): 0.009983 and 0.01574 and 0.02887 | Foci intensity (FKBP12 and mTOR; conc 0.00038147 uM): 0.01899 and 0.01621 and 0.01221 | Foci intensity (FKBP12 and mTOR; conc 0.000762939 uM): 0.002009 and 0.003868 and 0.01862 | Foci intensity (FKBP12 and mTOR; conc 0.00152588 uM): 0.02126 and 0.01678 and 0.003092 | Foci intensity (FKBP12 and mTOR; conc 0.00305176 uM): 0.0138 and 0.01691 and 0.01576 | Foci intensity (FKBP12 and mTOR; conc 0.00610352 uM): 0.03172 and 0.01801 and 0.0222 | Foci intensity (FKBP12 and mTOR; conc 0.012207 uM): 0.01093 and 0.01362 and 0.01381 | Foci intensity (FKBP12 and mTOR; conc 0.0244141 uM): 0.01964 and 0.01491 and 0.01835 | Foci intensity (FKBP12 and mTOR; conc 0.0488281 uM): 0.004003 and 0.01339 and 0.01507 | Foci intensity (FKBP12 and mTOR; conc 0.0976562 uM): 0.01375 and 0.009337 and 0.02775 | Foci intensity (FKBP12 and mTOR; conc 0.195312 uM): 0.0177 and 0.02519 and 0.008414 | Foci intensity (FKBP12 and mTOR; conc 0.390625 uM): 0.01709 and 0.006803 and 0.01525 | Foci intensity (FKBP12 and mTOR; conc 0.78125 uM): 0.01284 and 0.02644 and 0.03084 | Foci intensity (FKBP12 and mTOR; conc 1.5625 uM): 0.02173 and 0.02485 and 0.03636 | Foci intensity (FKBP12 and mTOR; conc 3.125 uM): 0.02309 and 0.03313 and 0.02928 | Foci intensity (FKBP12 and mTOR; conc 6.25 uM): 0.01525 and 0.02728 and 0.02945 | Foci intensity (FKBP12 and mTOR; conc 12.5 uM): 0.02884 and 0.0389 and 0.01245 | Foci intensity (FKBP12 and mTOR; conc 25 uM): 0.03878 and 0.02312 and 0.004037 | Foci intensity (FKBP12 and mTOR; conc 50 uM): 0.02187 and 0.0201 and 0.02169 | SKOV3 viability (%) ([2]; conc 9.53674e-5 uM): 103.0% and 111.8% and 102.7% | SKOV3 viability (%) ([2]; conc 0.000190735 uM): 100.4% and 96.2% and 95.8% | SKOV3 viability (%) ([2]; conc 0.00038147 uM): 103.1% and 104.5% and 105.0% | SKOV3 viability (%) ([2]; conc 0.000762939 uM): 97.9% and 100.1% and 100.0% | SKOV3 viability (%) ([2]; conc 0.00152588 uM): 106.4% and 105.2% and 101.9% | SKOV3 viability (%) ([2]; conc 0.00305176 uM): 98.6% and 97.0% and 99.4% | SKOV3 viability (%) ([2]; conc 0.00610352 uM): 109.3% and 103.3% and 106.5% | SKOV3 viability (%) ([2]; conc 0.012207 uM): 99.6% and 97.7% and 101.2% | SKOV3 viability (%) ([2]; conc 0.0244141 uM): 103.3% and 106.1% and 104.6% | SKOV3 viability (%) ([2]; conc 0.0488281 uM): 98.5% and 100.3% and 98.3% | SKOV3 viability (%) ([2]; conc 0.0976562 uM): 105.4% and 104.9% and 104.3% | SKOV3 viability (%) ([2]; conc 0.195312 uM): 95.0% and 97.7% and 100.1% | SKOV3 viability (%) ([2]; conc 0.390625 uM): 104.0% and 107.6% and 105.3% | SKOV3 viability (%) ([2]; conc 0.78125 uM): 100.0% and 99.8% and 98.6% | SKOV3 viability (%) ([2]; conc 1.5625 uM): 98.3% and 102.6% and 98.7% | SKOV3 viability (%) ([2]; conc 3.125 uM): 98.0% and 99.6% and 88.9% | SKOV3 viability (%) ([2]; conc 6.25 uM): 95.1% and 93.6% and 91.3% | SKOV3 viability (%) ([2]; conc 12.5 uM): 92.5% and 90.6% and 91.1% | SKOV3 viability (%) ([2]; conc 25 uM): 91.0% and 92.9% and 94.1% | SKOV3 viability (%) ([2]; conc 50 uM): 83.8% and 79.2% and 82.0% | MESO1 viability (%) ([3]; conc 9.53674e-5 uM): 103.9% and 103.5% and 98.5% | MESO1 viability (%) ([3]; conc 0.000190735 uM): 96.6% and 99.4% and 97.9% | MESO1 viability (%) ([3]; conc 0.00038147 uM): 98.3% and 99.6% and 101.3% | MESO1 viability (%) ([3]; conc 0.000762939 uM): 105.2% and 96.5% and 100.7% | MESO1 viability (%) ([3]; conc 0.00152588 uM): 101.4% and 100.3% and 96.4% | MESO1 viability (%) ([3]; conc 0.00305176 uM): 100.9% and 90.0% and 104.4% | MESO1 viability (%) ([3]; conc 0.00610352 uM): 103.9% and 99.7% and 97.3% | MESO1 viability (%) ([3]; conc 0.012207 uM): 100.4% and 97.8% and 98.7% | MESO1 viability (%) ([3]; conc 0.0244141 uM): 97.0% and 101.2% and 106.3% | MESO1 viability (%) ([3]; conc 0.0488281 uM): 98.5% and 98.3% and 96.0% | MESO1 viability (%) ([3]; conc 0.0976562 uM): 105.6% and 104.1% and 98.8% | MESO1 viability (%) ([3]; conc 0.195312 uM): 98.6% and 98.7% and 91.4% | MESO1 viability (%) ([3]; conc 0.390625 uM): 103.9% and 97.5% and 98.1% | MESO1 viability (%) ([3]; conc 0.78125 uM): 94.8% and 90.3% and 84.8% | MESO1 viability (%) ([3]; conc 1.5625 uM): 93.0% and 93.7% and 91.6% | MESO1 viability (%) ([3]; conc 3.125 uM): 84.8% and 80.8% and 88.7% | MESO1 viability (%) ([3]; conc 6.25 uM): 89.0% and 88.1% and 84.7% | MESO1 viability (%) ([3]; conc 12.5 uM): 82.3% and 77.8% and 85.2% | MESO1 viability (%) ([3]; conc 25 uM): 76.7% and 80.1% and 74.6% | MESO1 viability (%) ([3]; conc 50 uM): 57.9% and 55.6% and 52.8%
